Data taken from US8618153B2, “Hepatitis C virus inhibitors” (Bristol-Myers Squibb Company, priority 2009, dated 2013).

Test system: HCV 1b genotype
Assay: HCV Replicon assay (HCV-neo replicon cells), 1b genotype
Assay type: cell-based
Conditions: Hepatitis C virus; HCV 1b genotype replicon; value given as range class; read-out: 1b EC50 (in μM or range)
Method in brief: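 HCV-neo replicon cells, wild-type and carrying NS5A mutations, used to measure compound inhibition of replication; luciferase reporter replicon formats also applied.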

| SMILES | EC50 [µM] |
| --- | --- |
| COC(=O)N[C@@H](C)C(=O)N1CCC[C@H]1c1nc(C#Cc2ccc(C#Cc3c[nH]c([C@@H]4CCCN4C(=O)[C@H](C)NC(=O)OC)n3)cc2)c[nH]1 [Example M6, Methyl ((1S)-2-((2S)-2-(4-((4-((2-((2S)-1-(N-(methoxycarbonyl)-L-alanyl)-2-pyrrolidinyl)-1H-imidazol-4-yl)ethynyl)phenyl)ethynyl)-1H-imidazol-2-yl)-1-pyrrolidinyl)-1-methyl-2-oxoethyl)carbamate] | 0.001 to 0.01 |
| COCC[C@H](NC(=O)OC)C(=O)N1CCC[C@H]1c1nc(C#Cc2ccc(C#Cc3c[nH]c([C@@H]4CCCN4C(=O)[C@H](CCOC)NC(=O)OC)n3)cc2)c[nH]1 [Example M7, Methyl ((1S)-3-methoxy-1-(((2S)-2-(4-((4-((2-((2S)-1-(N-(methoxycarbonyl)-O-methyl-L-homoseryl)-2-pyrrolidinyl)-1H-imidazol-4-yl)ethynyl)phenyl)ethynyl)-1H-imidazol-2-yl)-1-pyrrolidinyl)carbonyl)propyl)carbamate] | < 0.001 |
